# Results published in patent US11085081B2, “Methods and materials for determining pain sensitivity and predicting and treating related disorders” (The University of North Carolina at Chapel Hill, priority 2004, dated 2021).
# Legend:
# [1] = test system: Mouse macrophages (RAW 264.7); assay: In vitro cytokine measurement (real time PCR of transcripts) in macrophages; assay type: cell-based
# Description: Cell growth media consisted of Dulbecco's modified Eagle's medium supplemented with 10% heat-inactivated fetal bovine serum (Sigma, St. Louis, Mo., U.S.A.) and 1× penicillin-streptomycin (Gibco, Carlsbad, Calif., U.S.A.). Cells were maintained in a humidified atmosphere of 95% air and 5% CO2. Total RNA was isolated using the RNeasy Mini Kit (Qiagen, Valencia, Calif., U.S.A.). RNA was then treated with 2 units of DNase I (Ambion, Austin, Tex., U.S.A.) at 37° C. for 30 min. Reverse transcription was performed according to the manufacturer's instructions. Briefly, the reverse transcription reaction mixture consisted of 1 μg DNase 1-treated RNA, 500 ng oligo-[…], 10 mM dNTP, 40 units RNasin (Promega, Madison, Wis., U.S.A.), and 200 units of reverse transcriptase SUPERSCRIPT IIITM (Invitrogen, Carlsbad, Calif., U.S.A.). cDNA synthesis was carried out at 50° C. for 1 hr followed by inactivation of reverse transcriptase at 70° C. for 15 min. […] Cell maintenance and 3T3-L1 preadipocyte differentiation is described herein below. For pharmacological experiments, cells were seeded at a density of 5×10^5 cells/well in a 12-well plate (Corning). Total RNA was isolated and reverse transcribed as described in the supplementary materials. […] TNFα, IL-1β, and IL-6 transcript levels were normalized to Glyceraldehyde-3-phosphate dehydrogenase (GAPDH).
# 3T3-L1 adipocytes = assay: In vitro cytokine measurement (real time PCR of transcripts) in adipocytes; assay type: cell-based, mouse
# Description: Cell growth media consisted of Dulbecco's modified Eagle's medium supplemented with 10% heat-inactivated fetal bovine serum (Sigma, St. Louis, Mo., U.S.A.) and 1× penicillin-streptomycin (Gibco, Carlsbad, Calif., U.S.A.). Cells were maintained in a humidified atmosphere of 95% air and 5% CO2.
# Two days after reaching confluence in growth media, adipogenesis was induced by incubating cells in growth media containing 0.25 μM dexamethasone (Sigma), 0.5 mM IBMX (Sigma), and 1 μM insulin (Sigma). After an additional 2 days in growth media containing 1 μM insulin, cells were grown for 6-8 days in normal growth media.
# Total RNA was isolated using the RNeasy Mini Kit (Qiagen, Valencia, Calif., U.S.A.). RNA was then treated with 2 units of DNase I (Ambion, Austin, Tex., U.S.A.) at 37° C. for 30 min. Reverse transcription was performed according to the manufacturer's instructions. Briefly, the reverse transcription reaction mixture consisted of 1 μg DNase 1-treated RNA, 500 ng oligo-dT12-18, 10 mM dNTP, 40 units RNasin (Promega, Madison, Wis., U.S.A.), and 200 units of reverse transcriptase SUPERSCRIPT III™ (Invitrogen, Carlsbad, Calif., U.S.A.). cDNA synthesis was carried out at 50° C. for 1 hr followed by inactivation of reverse transcriptase at 70° C. for 15 min.
# Mouse macrophages (RAW 264.7) and […] preadipocytes (3T3-L1) were obtained from the University of North Carolina Tissue Culture Facility. Cell maintenance and 3T3-L1 preadipocyte differentiation is described herein below. For pharmacological experiments, cells were seeded at a density of 5×10^5 cells/well in a 12-well plate (Corning). Total RNA was isolated and reverse transcribed as described in the supplementary materials. TNFα, IL-1β, and IL-6 transcripts were quantitated in quadruplicate by real time polymerase chain reaction using TAQMAN® Gene Expression Assays (Applied Biosystems, Foster City, Calif., U.S.A.) in an ABI PRISM 7000 Sequence Detection System. TNFα, IL-1β, and IL-6 transcript levels were normalized to Glyceraldehyde-3-phosphate dehydrogenase (GAPDH).
# Sprague-Dawley rats = assay: Mechanical and thermal pain behavior testing (von Frey monofilaments, radiant heat); assay type: in vivo, rat; details: for blockade of OR486-induced hyperalgesia / heightened pain sensitivity: antagonist i.p. prior to OR486; for paw withdrawal latency to radiant heat after OR486, selective βAR antagonists: i.p. 10 min prior to OR486, ICI118,551 5.0 mg/kg; for paw withdrawal latency to radiant heat after OR486, selective βAR antagonists / paw withdrawal frequency to mechanical stimuli after OR486, selective βAR antagonists / paw withdrawal threshold to mechanical stimuli after OR486, selective βAR antagonists: SR59230A 5 or 50 mg/kg, betaxolol 0.1, 1.0, 10 mg/kg, relative to vehicle prior to OR486; for paw withdrawal frequency to mechanical stimuli after OR486, selective βAR antagonists / paw withdrawal threshold to mechanical stimuli after OR486, selective βAR antagonists: i.p. 10 min prior to OR486, ICI118,551 0.5 or 5.0 mg/kg; for paw withdrawal frequency to mechanical stimuli, antagonist in the absence of OR486 / paw withdrawal latency to radiant heat, antagonist in the absence of OR486 / paw withdrawal threshold to mechanical stimuli, antagonist in the absence of OR486: i.p. 10 min prior to vehicle, phentolamine 3, propranolol 3, SCH23390 0.2, spiperone 0.2, betaxolol 1.0, ICI118,551 0.5, SR59230A 5 mg/kg, relative to vehicle
# Description: Rats were placed in plexiglass cages positioned over an elevated perforated stainless steel platform and habituated to the environment for 15-25 min prior to testing. Paw withdrawal threshold to punctate mechanical stimulation was assessed using the up-down method of Chaplan et al. (1994). A series of nine calibrated filaments (with bending forces of 0.40, 0.68, 1.1, 2.1, 3.4, 5.7, 8.4, 13.2, and 25.0 g; Sammons Preston Rolyan, Bolingbrook, Ill., U.S.A.) with approximately equal logarithmic spacing between stimuli (Mean±SEM: 0.232±0.04 units) were presented to the hind paw in successive order, whether ascending or descending. Filaments were positioned in contact with the hind paw for a duration of 3 s or until a withdrawal response occurred. Testing was initiated with the middle hair of the series (3.4 g). In the absence of a paw withdrawal response, an incrementally stronger filament was presented and in the event of a paw withdrawal, an incrementally weaker filament was presented. After the initial response threshold was crossed, this procedure was repeated four times in order to obtain a total of six responses in the immediate vicinity of the threshold. The presence of paw withdrawal (X) and absence of withdrawal (O) was noted together with the terminal filament used in the series of six responses. The 50% g threshold=(10^[Xf+kδ])/10,000, where Xf=value (in log units) of the final von Frey hair used; k=tabular value of pattern of positive (X) and negative (O) responses, and δ=mean difference (in log units) between stimuli.
# Immediately following determination of the response threshold, paw withdrawal frequency (%) to punctate mechanical stimulation was assessed. A von Frey monofilament with a calibrated bending force of 25 g was presented to the hind paw 10 times for a duration of 1 s with an interstimulus interval of approximately 1 s. Mechanical hyperalgesia was defined as an increase in the percentage frequency ([# of paw withdrawals/10]×100) of paw withdrawal evoked by stimulation with von Frey monofilaments.
# Thermal hyperalgesia was evaluated using the radiant heat method of Hargreaves et al. (1988) in the same animals evaluated for responsiveness to von Frey monofilaments. Radiant heat was presented through the floor of a finely perforated stainless steel platform to the midplantar region of the hind paw.
# After establishing stable baseline responsiveness to mechanical and thermal stimuli, separate groups of rats received intraperitoneal injections of OR486 (30 mg/kg i.p.; N=8) or vehicle (N=8) one hour prior to behavioral testing. Responsiveness to von Frey filaments was reassessed at 30 min intervals for 2 hours. Paw withdrawal latencies to radiant heat were subsequently assessed at 2.5 hours into the testing procedure. Twenty-four hours later, baseline responsiveness to mechanical and thermal stimuli was reestablished. Animals received OR486 (30 mg/kg i.p.) or vehicle (consistent with the previous day). Thirty minutes following administration of drug or vehicle, separate groups of rats received intraplantar carrageenan (N=4 per group) or saline (N=4 per group). Responsiveness to von Frey filaments was reassessed at 30 min intervals for 2 hours following the induction of inflammation. Paw withdrawal latencies to radiant heat were subsequently assessed at 2.5 hours post carrageenan.
# Rats were handled and habituated to the testing environment 2-3 days prior to establishing baseline responsiveness. On test days, rats were placed in plexiglass cages positioned over an elevated perforated stainless steel platform and habituated to the environment for 15-20 minutes prior to testing. Paw withdrawal threshold to punctate mechanical stimulation was assessed using the up-down method of Chaplan (Chaplan et al. (1994)). […]
# TNFα, IL-1β, and IL-6 = assay: In vivo plasma cytokine measurement (ELISA); parameters: species or system rat; details: rats; ICI118,551 or SR59230A prior to OR486, low, middle and high dose pooled; relative to vehicle prior to OR486
# Description: Blood was centrifuged and plasma separated from red blood cells. Plasma IL-6 was measured in duplicate using enzyme-linked immunosorbant assay (ELISA) kits from R&D systems (Minneapolis, Minn., U.S.A.). Plasma TNFα and IL-1β were measured in duplicate by the University of North Carolina Proteomics Ilmmunotechnologies Core using ELISA kits from Biosource (Camarillo, Calif., U.S.A.) and the National Institute for Biological Standards and Control (UK), respectively.
# [2] = pretreatment 30 min: betaxolol 0.3 μM, ICI118,551 0.3 μM, SR59230A 0.1 μM, then salmeterol 0.5 μM 1 hr
# [3] = salmeterol 0.5 μM, 1 hr treatment, normalized to GAPDH
compound,measurement,setting,value
"Cc1ccc(OCC(O)C(C)NC(C)C)c2c1CCC2 (single isomer, unassigned; (-)) [ICI118,551, (−)-1-(2,3-[dihydro-7-methyl-1H-inden-4-yl]oxy)-3-([1-methylethyl]-amino)-2-butanol]",blockade of salmeterol-induced increase in macrophage IL-1β and IL-6 transcript levels,[1]; [2],completely blocked
same,blockade of salmeterol-induced increase in adipocyte TNFα and IL-6 transcript levels,3T3-L1 adipocytes; [2],completely blocked
same,blockade of OR486-induced hyperalgesia / heightened pain sensitivity,Sprague-Dawley rats,partially blocked
same,"paw withdrawal latency to radiant heat after OR486, selective βAR antagonists",Sprague-Dawley rats,increased paw withdrawal latency
same,"paw withdrawal frequency to mechanical stimuli after OR486, selective βAR antagonists",Sprague-Dawley rats,decreased paw withdrawal frequency
same,"paw withdrawal threshold to mechanical stimuli after OR486, selective βAR antagonists",Sprague-Dawley rats,increased paw withdrawal threshold
same,"paw withdrawal frequency to mechanical stimuli, antagonist in the absence of OR486",Sprague-Dawley rats,failed to affect
same,"paw withdrawal latency to radiant heat, antagonist in the absence of OR486",Sprague-Dawley rats,failed to affect
same,"paw withdrawal threshold to mechanical stimuli, antagonist in the absence of OR486",Sprague-Dawley rats,failed to affect
same,"levels of IL-1β after OR486, selective β2 or β3 antagonist","TNFα, IL-1β, and IL-6",decreased levels
same,"levels of IL-6 after OR486, selective β2 or β3 antagonist","TNFα, IL-1β, and IL-6",decreased levels
same,"levels of TNFα after OR486, selective β2 or β3 antagonist","TNFα, IL-1β, and IL-6",decreased levels
OCc1cc(C(O)CNCCCCCCOCCCCc2ccccc2)ccc1O (stereo not drawn) [salmeterol],increase in IL-1β mRNA levels in macrophages,[1]; [3],38 fold
same,increase in IL-6 mRNA levels in macrophages,[1]; [3],6.5 fold
same,increase in IL-6 mRNA levels in adipocytes,"3T3-L1 adipocytes; salmeterol 0.5 μM or CL316243 0.3 μM, 1 hr treatment, normalized to GAPDH",8 fold
same,increase in TNFα mRNA levels in adipocytes,3T3-L1 adipocytes; [3],6 fold
"CCc1ccccc1OC[C@@H](O)CN[C@H]1CCCc2ccccc21 [SR59230A, (1-(2-ethylphenoxy)-3-[[(1S)-1,2,3,4-tetrahydro-1-naphthalenyl]amino]-(2S)-2-propanol)]",blockade of CL316243-induced increase in adipocyte IL-6 transcript levels,"3T3-L1 adipocytes; pretreatment 30 min: betaxolol 0.3 μM, ICI118,551 0.3 μM, SR59230A 0.1 μM, then CL316243 0.3 μM 1 hr",completely blocked
same,blockade of OR486-induced hyperalgesia / heightened pain sensitivity,Sprague-Dawley rats,partially blocked
same,"paw withdrawal latency to radiant heat after OR486, selective βAR antagonists",Sprague-Dawley rats,increased paw withdrawal latency
same,"paw withdrawal frequency to mechanical stimuli after OR486, selective βAR antagonists",Sprague-Dawley rats,decreased paw withdrawal frequency
same,"paw withdrawal threshold to mechanical stimuli after OR486, selective βAR antagonists",Sprague-Dawley rats,increased paw withdrawal threshold
same,"paw withdrawal frequency to mechanical stimuli, antagonist in the absence of OR486",Sprague-Dawley rats,failed to affect
same,"paw withdrawal latency to radiant heat, antagonist in the absence of OR486",Sprague-Dawley rats,failed to affect
same,"paw withdrawal threshold to mechanical stimuli, antagonist in the absence of OR486",Sprague-Dawley rats,failed to affect
same,"levels of IL-1β after OR486, selective β2 or β3 antagonist","TNFα, IL-1β, and IL-6",decreased levels
same,"levels of IL-6 after OR486, selective β2 or β3 antagonist","TNFα, IL-1β, and IL-6",decreased levels
same,"levels of TNFα after OR486, selective β2 or β3 antagonist","TNFα, IL-1β, and IL-6",decreased levels
